Columns and labels:
Type in all cases: in vivo
[1] = test system: transplanted Oryza sativa; assay: Test Example 1: effect on crop, application before weed generation in submerged conditions; settings: Application herbicide amount 320 g/ha; Seventeenth Table
In short: (§1)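 Submerged pot test: alluvial soil, 4 cm water, seeds sown mixed, 2.5-leaf rice transplanted; emulsion in water applied to surface day of sowing, dose g/ha; greenhouse 25–30° C.; 3 wk; 0–5 rating.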

Setaria viridis = assay: Test Example 4: herbicidal effect by application to foliage (diluvial soil, plastic box); settings: for G (Setaria viridis) herbicidal effect grade: foliage application
In short: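 Read-out is a 0–5 visual grade of herbicidal ratio (5: ≥90%, almost withered; 0: ≤5%) taken three weeks after treatment. Compound was applied as a diluted emulsion to stem and leaf parts of 14-day greenhouse-grown plants (25° C. to 30° C.) at rates expressed as g/ha.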

[2] = test system: directly sowed Oryza sativa; assay: Test Example 3: effect on crop by application to foliage (Wagner pot, water depth 0.1-0.5 cm); settings: Nineteenth Table; application to foliage; application herbicide amount 320 g/ha
In short: (§2)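 Scores (0–5) reflect herbicidal ratio three weeks after a foliar spray: 0 is 5% or less, 5 is 90% or more. Plants had grown 14 days in alluvial soil pots in a 25–30 °C greenhouse before treatment with water-diluted emulsion at a set g/ha.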

Scirpus juncoides = assay: Test Example 1: herbicidal activity, application before weed generation in submerged conditions; settings: Application herbicide amount 320 g/ha; Seventeenth Table
In short: as §1

[3] = test system: Echinochloa oryzacola Vasing.; assay: as above; settings: Application herbicide amount 320 g/ha; Seventeenth Table
In short: as §1

Monochoria vaginalis = assay: as above; settings: Application herbicide amount 320 g/ha; Seventeenth Table
In short: as §1

Leptochloa chinensis = assay: Test Example 3: herbicidal effect by application to foliage (Wagner pot, water depth 0.1-0.5 cm); settings: Nineteenth Table; application to foliage; application herbicide amount 320 g/ha
In short: as §2

Cyperus difformis = assay: as above; settings: Nineteenth Table; application to foliage; application herbicide amount 320 g/ha
In short: as §2

[4] = test system: Echinochloa crus-galli var. crus-galli; assay: as above; settings: Nineteenth Table; application to foliage; application herbicide amount 320 g/ha
In short: as §2

[5] = Application herbicide amount 320 g/ha

SMILES | a: transplanted Oryza sativa (effect on crop grade) [1] | G (Setaria viridis) herbicidal effect grade (Setaria viridis; [5]) | b (effect on crop grade) [2] | B: Scirpus juncoides (herbicidal effect grade) (Scirpus juncoides) | A: Echinochloa oryzicola Vasing. (herbicidal effect grade) [3] | C: Monochoria vaginalis (herbicidal effect grade) (Monochoria vaginalis) | D (herbicidal effect grade) (Leptochloa chinensis) | E (herbicidal effect grade) (Cyperus difformis) | H (herbicidal effect grade) [4] | G (Setaria viridis) herbicidal effect grade (Setaria viridis; 320 g/ha) | G: herbicidal effect on Setaria viridis (Setaria viridis; application to foliage, application herbicide amount 320 g/ha)
Cc1nnc(NC(=O)c2ccc(C(F)(F)F)n3c(N4CCSCC4)nnc23)o1 [1-118] | 2 (Herbicidal ratio of 20% or more and less than 40%) | 5 (Herbicidal ratio of 90% or more (almost completely withered)) | 3 (Herbicidal ratio of 40% or more and less than 70%) | 2 (Herbicidal ratio of 20% or more and less than 40%) | 3 (Herbicidal ratio of 40% or more and less than 70%) | 0 (Herbicidal ratio of 5% or less (almost no effect)) | 5 (Herbicidal ratio of 90% or more (almost completely withered)) | 3 (Herbicidal ratio of 40% or more and less than 70%) | 5 (Herbicidal ratio of 90% or more (almost completely withered)) | – | –
CSCc1nnc2c(C(=O)Nc3nnnn3C)ccc(C(F)(F)F)n12 [2-029] | 5 (Herbicidal ratio of 90% or more (almost completely withered)) | – | 5 (Herbicidal ratio of 90% or more (almost completely withered)) | 5 (Herbicidal ratio of 90% or more (almost completely withered)) | 5 (Herbicidal ratio of 90% or more (almost completely withered)) | 5 (Herbicidal ratio of 90% or more (almost completely withered)) | 5 (Herbicidal ratio of 90% or more (almost completely withered)) | 5 (Herbicidal ratio of 90% or more (almost completely withered)) | 5 (Herbicidal ratio of 90% or more (almost completely withered)) | 5 (Herbicidal ratio of 90% or more (almost completely withered)) | –
Cn1nnnc1NC(=O)c1ccc(C(F)(F)F)n2c(COc3ccccc3)nnc12 [2-020] | 1 (Herbicidal ratio of 5% or more and less than 20%) | – | 4 (Herbicidal ratio of 70% or more and less than 90%) | 2 (Herbicidal ratio of 20% or more and less than 40%) | 3 (Herbicidal ratio of 40% or more and less than 70%) | 2 (Herbicidal ratio of 20% or more and less than 40%) | 4 (Herbicidal ratio of 70% or more and less than 90%) | 4 (Herbicidal ratio of 70% or more and less than 90%) | 4 (Herbicidal ratio of 70% or more and less than 90%) | – | 3 (Herbicidal ratio of 40% or more and less than 70%)
COCCN(C)c1nnc2c(C(=O)Nc3nnco3)ccc(C(F)(F)F)n12 [1-121] | 3 (Herbicidal ratio of 40% or more and less than 70%) | 4 (Herbicidal ratio of 70% or more and less than 90%) | 3 (Herbicidal ratio of 40% or more and less than 70%) | 4 (Herbicidal ratio of 70% or more and less than 90%) | 5 (Herbicidal ratio of 90% or more (almost completely withered)) | 4 (Herbicidal ratio of 70% or more and less than 90%) | 5 (Herbicidal ratio of 90% or more (almost completely withered)) | 5 (Herbicidal ratio of 90% or more (almost completely withered)) | 5 (Herbicidal ratio of 90% or more (almost completely withered)) | – | –
